Here are results for eight molecules from ChEMBL document CHEMBL5390243, “Catecholamine Derivatives: Natural Occurrence, Structural Diversity, and Biological Activity” (J Nat Prod, 2023).

Structures are written as SMILES. pIC50, pKi: −log10 of the molar value. Values after ≈ are worked out from the molar mass of the structure shown.

For data set [1], the target named is Cyclin-dependent kinase 5/CDK5 activator 1 (Homo sapiens, UniProt Q00535). Nature of the data set: Inhibition of N-terminal full length human recombinant CDK5/p25 expressed in baculovirus-infected Sf21 cells incubated for 60 mins in presence of ATP by kinase-glo luminescent assay. (Kinase-Glo reads ATP consumption through a luciferase reaction.)
In data set [2] the target is Casein kinase I isoform delta (Homo sapiens, UniProt P48730). Nature of the data set: Inhibition of N-terminal GST-tagged human recombinant CK1delta (1 to 294 residues) expressed in Escherichia coli incubated for 60 mins in presence of ATP by Kinase-glo luminescent assay.
For data set [3], the target named is Glycogen synthase kinase-3 beta (Homo sapiens, UniProt P49841). Description: Inhibition of N-terminal His6-tagged human recombinant GSK3beta expressed in baculovirus-infected Sf21 cells incubated for 60 mins in presence of ATP by ADP-glo analysis. For orientation: In ADP-Glo the light output rises with the ADP produced.
In data set [4] the test system is Bacillus subtilis. Nature of the data set: Antibacterial activity against Bacillus subtilis ATCC 6633 assessed as reduction in bacterial growth incubated for 18 to 24 hrs by broth microdilution method. The data set is classed as functional, organism-based.
The subject of data set [5] is Bacillus subtilis. Description: Antibacterial activity against Bacillus subtilis ATCC 6051 assessed as reduction in bacterial growth incubated for 18 to 24 hrs by broth microdilution method. The data set is classed as functional, organism-based. Background: Broth dilution looks for growth in wells or tubes with falling amounts of substance.
The nature of data set [6]: Immunosuppressive activity in Kunming mouse splenocyte assessed as reduction in ConA-stimulated T-lymphocytes proliferation at 20 uM incubated for 72 hrs by CCK-8 assay relative to control. The data set is classed as functional, T-cell. Set-up: scale not given: the % may be the effect or the level left.
The target of data set [7] is Rho-associated protein kinase 1 (Homo sapiens, UniProt Q13464). Description: Inhibition of ROCK1 (unknown origin) incubated for 1 hr by FRET based Z'-lyte assay.
For data set [8], the target named is Rho-associated protein kinase 2 (Homo sapiens, UniProt O75116). Description: Inhibition of ROCK2 (unknown origin) incubated for 1 hr by FRET based Z'lyte assay.
In data set [9] the test system is Nakaseomyces glabratus. Description: Antifungal activity against Candida glabrata assessed as reduction in fungal growth incubated for 24 hrs by serial dilution method. The data set is classed as functional.
For data set [10], the system named is RAW264.7. Description: Antiinflammatory activity against mouse RAW264.7 cells assessed as inhibition of LPS-induced TNF-alpha secretion at 20 uM after 24 hrs by ELISA relative to control. The data set is classed as functional. On the set-up: scale not given: the % may be the effect or the level left.
The nature of data set [11]: Immunosuppressive activity in Kunming mouse splenocyte assessed as inhibition of LPS-induced B-lymphocytes proliferation at 20 uM incubated for 72 hrs by CCK-8 assay relative to control. The data set is classed as functional. On the set-up: scale not given: the % may be the effect or the level left.
Data set [12] deals with RAW264.7. Nature of the data set: Antiinflammatory activity against mouse RAW264.7 cells assessed as inhibition of LPS-induced TNF-alpha secretion at 4 uM after 24 hrs by ELISA relative to control. The data set is classed as functional. Set-up: scale not given: the % may be the effect or the level left.
Data set [13] has as its system RAW264.7. Description: Antiinflammatory activity against mouse RAW264.7 cells assessed as inhibition of LPS-induced nitric oxide production at 25 uM measured after 24 hrs relative to control. The data set is classed as functional. Set-up: scale not given: the % may be the effect or the level left.
A short description of data set [14]: Cytotoxicity against rat NRK-52E cells assessed as inhibition of cell growth incubated for 24 hrs by CCK-8 assay. The data set is classed as toxicity, cell-based.
Data set [15] has as its system RAW264.7. Nature of the data set: Antiinflammatory activity against mouse RAW264.7 cells assessed as inhibition of LPS-induced TNF-alpha production at 25 uM measured after 24 hrs by ELISA method relative to control. The data set is classed as functional. Set-up: scale not given: the % may be the effect or the level left.
Data set [16] addresses Delta-type opioid receptor (Homo sapiens, UniProt P41143). Nature of the data set: Binding affinity to DOR (unknown origin) assessed as inhibition constant.

Casein kinase I isoform delta, sequence (P48730 whole entry, the tested form may be a part, canonical isoform): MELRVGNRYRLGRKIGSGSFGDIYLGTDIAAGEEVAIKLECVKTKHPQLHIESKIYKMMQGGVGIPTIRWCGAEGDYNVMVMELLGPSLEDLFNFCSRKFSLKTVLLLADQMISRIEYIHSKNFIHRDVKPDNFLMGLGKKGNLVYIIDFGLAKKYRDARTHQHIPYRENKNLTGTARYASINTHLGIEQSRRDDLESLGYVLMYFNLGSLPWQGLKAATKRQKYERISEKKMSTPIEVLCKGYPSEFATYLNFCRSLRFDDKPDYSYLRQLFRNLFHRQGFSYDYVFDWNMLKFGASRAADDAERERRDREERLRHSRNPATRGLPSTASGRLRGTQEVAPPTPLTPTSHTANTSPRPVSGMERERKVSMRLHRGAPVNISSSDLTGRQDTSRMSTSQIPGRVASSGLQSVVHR
Cyclin-dependent kinase 5/CDK5 activator 1, sequence (Q00535 whole entry, the tested form may be a part, canonical isoform): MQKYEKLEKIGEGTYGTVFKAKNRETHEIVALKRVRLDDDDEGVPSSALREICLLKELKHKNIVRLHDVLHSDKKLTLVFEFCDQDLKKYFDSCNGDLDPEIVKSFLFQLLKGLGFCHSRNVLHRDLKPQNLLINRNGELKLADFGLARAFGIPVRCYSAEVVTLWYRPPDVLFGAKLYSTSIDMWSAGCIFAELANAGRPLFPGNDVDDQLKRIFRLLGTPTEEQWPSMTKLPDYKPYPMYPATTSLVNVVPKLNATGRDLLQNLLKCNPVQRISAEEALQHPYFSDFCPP
Cyclin-dependent kinase 5/CDK5 activator 1, sequence (Q15078 whole entry, further chain, the tested form may be a part, canonical isoform): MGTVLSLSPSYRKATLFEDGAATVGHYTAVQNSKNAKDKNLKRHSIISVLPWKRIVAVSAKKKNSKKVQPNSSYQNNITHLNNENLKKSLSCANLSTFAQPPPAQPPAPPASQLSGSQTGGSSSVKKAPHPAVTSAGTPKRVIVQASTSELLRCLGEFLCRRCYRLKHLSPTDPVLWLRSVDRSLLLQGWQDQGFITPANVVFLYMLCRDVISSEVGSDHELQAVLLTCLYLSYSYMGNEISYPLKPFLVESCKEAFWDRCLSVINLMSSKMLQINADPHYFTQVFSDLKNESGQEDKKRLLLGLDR
Glycogen synthase kinase-3 beta, sequence (P49841 whole entry): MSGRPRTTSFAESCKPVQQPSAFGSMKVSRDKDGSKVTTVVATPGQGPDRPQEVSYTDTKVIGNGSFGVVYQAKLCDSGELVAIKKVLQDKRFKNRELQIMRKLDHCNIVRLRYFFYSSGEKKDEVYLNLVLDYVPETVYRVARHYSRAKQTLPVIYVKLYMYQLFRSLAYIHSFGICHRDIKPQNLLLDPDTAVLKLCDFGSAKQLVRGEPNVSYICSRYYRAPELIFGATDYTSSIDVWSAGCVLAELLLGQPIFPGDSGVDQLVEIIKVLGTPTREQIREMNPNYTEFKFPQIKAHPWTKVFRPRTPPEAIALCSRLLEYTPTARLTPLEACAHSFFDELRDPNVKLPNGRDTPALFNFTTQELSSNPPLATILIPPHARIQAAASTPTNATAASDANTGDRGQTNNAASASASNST
Rho-associated protein kinase 1, sequence (Q13464 whole entry): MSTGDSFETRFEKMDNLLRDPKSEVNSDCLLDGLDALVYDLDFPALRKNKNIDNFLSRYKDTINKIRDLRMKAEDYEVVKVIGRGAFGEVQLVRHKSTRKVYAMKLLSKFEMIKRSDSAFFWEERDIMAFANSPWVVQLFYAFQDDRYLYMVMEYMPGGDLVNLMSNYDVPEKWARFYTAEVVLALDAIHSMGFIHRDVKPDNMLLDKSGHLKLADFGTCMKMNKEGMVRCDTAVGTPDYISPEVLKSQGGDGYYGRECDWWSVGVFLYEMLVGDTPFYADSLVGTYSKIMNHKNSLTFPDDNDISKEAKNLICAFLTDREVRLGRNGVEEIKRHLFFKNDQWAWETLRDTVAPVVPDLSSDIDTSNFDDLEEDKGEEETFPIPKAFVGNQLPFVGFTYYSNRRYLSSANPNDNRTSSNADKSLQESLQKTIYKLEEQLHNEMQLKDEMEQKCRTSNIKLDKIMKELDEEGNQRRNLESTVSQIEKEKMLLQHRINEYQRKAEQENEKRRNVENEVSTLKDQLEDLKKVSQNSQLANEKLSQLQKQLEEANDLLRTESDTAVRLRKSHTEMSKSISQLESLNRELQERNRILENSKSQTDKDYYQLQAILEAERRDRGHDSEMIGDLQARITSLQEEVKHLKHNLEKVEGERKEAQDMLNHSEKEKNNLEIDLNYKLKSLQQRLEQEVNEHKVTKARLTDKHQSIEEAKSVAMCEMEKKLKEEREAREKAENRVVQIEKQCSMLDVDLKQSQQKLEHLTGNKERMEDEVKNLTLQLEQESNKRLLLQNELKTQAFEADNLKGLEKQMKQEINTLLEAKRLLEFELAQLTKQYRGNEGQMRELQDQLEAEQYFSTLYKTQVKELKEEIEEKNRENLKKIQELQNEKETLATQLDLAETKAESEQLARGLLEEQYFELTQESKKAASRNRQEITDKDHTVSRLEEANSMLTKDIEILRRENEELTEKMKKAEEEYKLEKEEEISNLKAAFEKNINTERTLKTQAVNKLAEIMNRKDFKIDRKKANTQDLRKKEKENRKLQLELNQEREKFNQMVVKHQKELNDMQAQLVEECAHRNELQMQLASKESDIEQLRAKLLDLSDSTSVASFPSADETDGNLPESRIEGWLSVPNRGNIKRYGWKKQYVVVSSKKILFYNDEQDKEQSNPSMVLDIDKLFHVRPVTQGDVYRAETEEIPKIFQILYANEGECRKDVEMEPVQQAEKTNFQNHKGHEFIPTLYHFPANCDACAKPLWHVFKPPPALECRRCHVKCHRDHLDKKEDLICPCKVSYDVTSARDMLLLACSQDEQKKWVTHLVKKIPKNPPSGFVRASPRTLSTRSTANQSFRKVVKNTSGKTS
Delta-type opioid receptor, sequence (P41143 whole entry): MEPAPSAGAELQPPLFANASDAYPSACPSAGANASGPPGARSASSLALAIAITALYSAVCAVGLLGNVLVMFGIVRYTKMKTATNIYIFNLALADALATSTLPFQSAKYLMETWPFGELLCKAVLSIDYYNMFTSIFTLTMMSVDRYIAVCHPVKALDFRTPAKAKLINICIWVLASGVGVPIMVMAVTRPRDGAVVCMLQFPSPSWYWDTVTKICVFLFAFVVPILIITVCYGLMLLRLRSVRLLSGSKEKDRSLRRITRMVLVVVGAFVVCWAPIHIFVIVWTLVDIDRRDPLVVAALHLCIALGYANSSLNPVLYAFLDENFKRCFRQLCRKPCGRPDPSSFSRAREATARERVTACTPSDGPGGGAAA
Rho-associated protein kinase 2, sequence (O75116 whole entry): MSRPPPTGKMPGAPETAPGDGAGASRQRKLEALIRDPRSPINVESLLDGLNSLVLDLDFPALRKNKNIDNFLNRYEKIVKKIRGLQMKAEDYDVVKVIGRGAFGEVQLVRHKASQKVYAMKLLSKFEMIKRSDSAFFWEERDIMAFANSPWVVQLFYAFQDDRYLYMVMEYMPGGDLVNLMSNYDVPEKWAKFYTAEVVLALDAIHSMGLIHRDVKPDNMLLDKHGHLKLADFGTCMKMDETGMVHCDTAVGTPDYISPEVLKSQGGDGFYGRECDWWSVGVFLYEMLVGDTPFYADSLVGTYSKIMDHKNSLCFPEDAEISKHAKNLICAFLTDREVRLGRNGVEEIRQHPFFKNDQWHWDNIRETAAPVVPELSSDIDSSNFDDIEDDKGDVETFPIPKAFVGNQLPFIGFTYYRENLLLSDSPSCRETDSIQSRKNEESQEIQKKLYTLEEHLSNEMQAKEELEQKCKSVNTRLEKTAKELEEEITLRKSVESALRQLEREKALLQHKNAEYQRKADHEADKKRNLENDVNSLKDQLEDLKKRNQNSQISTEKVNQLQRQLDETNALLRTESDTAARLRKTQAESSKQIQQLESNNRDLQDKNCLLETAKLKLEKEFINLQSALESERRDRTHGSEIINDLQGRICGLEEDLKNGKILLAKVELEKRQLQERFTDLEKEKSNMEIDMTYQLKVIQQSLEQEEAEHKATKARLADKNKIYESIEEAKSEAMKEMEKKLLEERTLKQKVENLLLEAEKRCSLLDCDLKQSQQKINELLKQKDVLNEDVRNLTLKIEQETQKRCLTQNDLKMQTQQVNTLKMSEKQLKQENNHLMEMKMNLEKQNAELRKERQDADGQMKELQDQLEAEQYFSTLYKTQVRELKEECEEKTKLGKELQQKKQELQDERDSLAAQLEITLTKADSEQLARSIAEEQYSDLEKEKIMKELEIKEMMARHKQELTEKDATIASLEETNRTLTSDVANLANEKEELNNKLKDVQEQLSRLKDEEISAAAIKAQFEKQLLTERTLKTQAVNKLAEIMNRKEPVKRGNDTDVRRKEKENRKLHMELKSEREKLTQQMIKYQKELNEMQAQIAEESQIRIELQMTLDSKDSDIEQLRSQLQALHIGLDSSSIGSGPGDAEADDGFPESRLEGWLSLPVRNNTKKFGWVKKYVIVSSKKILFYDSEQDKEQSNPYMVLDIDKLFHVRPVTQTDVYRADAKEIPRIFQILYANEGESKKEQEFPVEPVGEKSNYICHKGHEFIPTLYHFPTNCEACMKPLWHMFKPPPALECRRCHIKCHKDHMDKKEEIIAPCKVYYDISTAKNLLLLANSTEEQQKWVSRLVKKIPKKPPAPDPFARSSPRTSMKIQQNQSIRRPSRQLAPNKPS

A word on the pIC50: it is the negative decadic logarithm of the IC50, by convention in mol/L. In the case of `O=C(O)c1[nH]c2c(=O)oc3cc(O)c(O)cc3c2c1-c1ccc(O)c(O)c1`, the pIC50 was 4.96 in data set [1]; 5.64 in [2]; 5.80 in data set [3]; 5.42 in data set [4]; 5.52 in data set [5].
Take `CC(=O)NCCc1cc(O)c(O)cc1[C@@H](NC(C)=O)C(=O)c1ccc(O)c(O)c1`: the Activity in data set [6] turned out to be 17.01%. Further, the results for the pIC50 in data set [7] and in [8] were 4.54 and 4.75, respectively.
The term MIC denotes the smallest concentration in the dilution series that meets the test's criterion for growth inhibition. For the molecule `C[C@H](N)[C@H](CCCCCCCCCCCC/C=C/C(O)CCCCCCC[C@@H]1NCCc2cc(O)c(O)cc21)O[C@@H]1O[C@@H](CO)[C@@H](O)[C@@H](O)[C@@H]1O` (some centres not stated), the minimum inhibitory concentration (MIC) in [9] came to 25 mg/L (≈ 34.6 µM).
For `O=CN1CCc2cc(O)c(O)cc2C1`, the Activity in data set [6] was 31.27%; in data set [10] it was 31.63%; in [11] it was 24.18%; in data set [12], 20.9%.
For the molecule `Oc1ccc(-c2cnccn2)cc1O`, the Activity in [13] amounted to 42.11%.
The IC50 is the concentration that inhibits the measured activity by half. On to `CC(=O)NCCc1ccc2c(c1)O[C@]1(NC(C)=O)[C@H](O2)c2cc(O)c(O)cc2[C@@H](c2ccc(O)c(O)c2)[C@@H]1NC(C)=O`, for which the IC50 at 24 h in data set [14] is 30 µM.
On to `Cc1cncc(-c2ccc(O)c(O)c2)n1`, for which the Activity in data set [15] was determined as 47.36%.
Usually pKi stands for −log10 of the Ki, conventionally taken in molar units. On to `N=C(N)NCCCC1=NCCc2cc(O)c(O)cc21`, for which the pKi in data set [16] was 6.31.
